Results reported in article PMC7483518, “Destabilizing single chain major histocompatibility complex class I protein for repurposed enterokinase proteolysis” (Scientific Reports, 2020).
Where two headings read alike, the source gives them in different places.

Columns and labels:
[1] = molecular target: photolabile unchained HLA-A*11:01 pMHC-I protein (Homo sapiens, UniProt P04439, A114D/D185E/E176A/F33Y/L180Q/S129P/T187R); test: ELISA with photolabile unchained pMHC-I protein and UV irradiation; format: binding; conditions: for ELISA450nm: Table 2, 62.5 nM photolabile pMHC-I mixture, 5 μM peptide in PBS, UV 365 nm 2 × 5 min on ice, 2 h room temperature on anti-β2m plate, Abs450nm − Abs570nm, instability cutoff < 0.6
[2] = system: HLA-A*11:01 single chain protein; format: biochemical, Human; design: EZ50kDa / EZ50kD (pH 6.2) / EZ50kD (pH 8) / EZ50kD (normalised: EBV1101 = 1, EBV0201 = 0) / EZ50kDa rank: unit not given beside the values; conditions: for EZ50kDa rank: HLA-A*11:01 single chain protein, 9-mer peptides;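 as to EZ50kD (pH 6.2): scaled with positive control peptide as 1 and negative control peptide as 0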

Sequence | ELISA450nm [1] | EZ50kD (pH 6.2) ([2]; pH 6.2) | EZ50kD (pH 8) [2] | also measured
MVWESGCTV [IEDB 140,054, Human; a known HLA-A*02:01 antigen, reference compound] | 0.5937 | – | – | –
FTNDSIISH [reference compound] | – | 0.6961 | 0.1339 | EZ50kDa rank ([2]; pH 6.2, 37 °C): 0.696
TSGSPIIDK [reference compound] | – | 0.7953 | 0.1596 | EZ50kDa rank ([2]; pH 6.2, 37 °C): 0.795
SVQPTFSVQR [reference compound] | – | 1.051 | 0.7376 | –
FLLTKILTI [reference compound] | 0.1791 | – | – | –
TLALEVAQQK [reference compound] | – | 0.7399 | 0.4517 | –
KFLPDLYDYK [reference compound] | 0.4809 | – | – | –
AVQTKPGLFK [reference compound] | – | 0.955 | 1.546 | –
TMVMELIRMIK [reference compound] | 0.748 | – | – | –
STLPETTVIR [putative peptide, HBV, no IEDB entry] | 1.302 | – | – | –
RTLSPRRR [putative peptide, Streptomyces sp, no IEDB entry] | 0.1209 | – | – | –
MVSRLLLNR [reference compound] | – | 1.196 | 0.2396 | –
RSQSPRRR [putative peptide, HBV, no IEDB entry] | 0.1859 | – | – | –
VTRGAVLMHK [reference compound] | – | 0.6228 | – | –
DLAQCFFCFK [reference compound] | 0.3956 | – | – | –
FIDSYICQV [reference compound] | 0.3491 | – | – | –
RTQSPRRRR [reference compound] | 1.204 | – | – | –
TVIRRRGR [reference compound] | 0.1482 | – | – | –
RTLSPRRRR [putative peptide, HBV, no IEDB entry] | 0.8658 | – | – | –
GLSPTVWLSA [reference compound] | 0.2488 | – | – | –
LVVDFSQFSR [reference compound] | – | – | – | EZ50kD (pH 6.2) ([2]; Table 2, pH 6.2, 37 °C, enterokinase, Eq. (4), instability cutoff < 0.3): 0.9461

Sequence | ELISA450nm [1] | EZ50kD (pH 6.2) ([2]; pH 6.2) | EZ50kD (pH 8) [2] | also measured
PFGSLLDYVREH [CS1047] | – | – | – | EASY_mean [1]: -0.01054
KSGAIKVLK [reference compound] | – | 0.819 | 0.4865 | –
GSLLDYVREH [CS1026] | – | – | – | EASY_mean [1]: -0.04117
TTKRDLGMSK [reference compound] | – | 0.796 | 0.3796 | –
LVSFLLLAGR [reference compound] | – | – | 0.07206 | –
TVVGRRGRSPR [putative peptide, HBV, no IEDB entry] | 1.259 | – | – | –
PFGSLLDYVRE [CS1035] | – | – | – | EASY_mean [1]: -0.00332
ATYGWNLVK [reference compound] | – | 0.8706 | 1.994 | –
MSYTMCSGK [reference compound] | – | 1.198 | 1.094 | EZ50kDa rank ([2]; pH 6.2, 37 °C): 1.198
TVVRRRCR [putative peptide, HBV, no IEDB entry] | 0.4625 | – | – | –
MATYGWNLVK [reference compound] | – | 0.6384 | 0.007553 | –
TVVRRRCRSPR [putative peptide, HBV, no IEDB entry] | 0.4145 | – | – | –
GSLLDYVREHKD [CS1049] | – | – | – | EASY_mean [1]: -0.02126
TTYLGPLSCK [reference compound] | – | 1.084 | 1.911 | –
ATVQGQNLK [reference compound] | – | 0.8968 | 0.767 | –
AINSEMFLR [reference compound] | – | 0.9012 | 1.19 | EZ50kDa rank ([2]; pH 6.2, 37 °C): 0.901
KTFVDLMRR [reference compound] | – | 0.8241 | 0.165 | –
YVSAIAQTEK [reference compound] | – | 0.3037 | – | –
MANEMGFLEK [reference compound] | – | 0.527 | – | –
GAMLFLISGK [reference compound] | – | 0.7468 | 1.036 | –
